Data as given in publication PMC12525867, “Aromaticity Tuning in Biaryl Monophosphines and Their Derivatives” (Molecules, 2025).
≈ marks a conversion by molar mass, not a printed value.

Tests used:
[1] = Cytotoxicity, microculture tetrazolium (MTT) test, H1HeLa; assay type: cell-based; conditions: human, H1HeLa cells (cervical adenocarcinoma, ATCC CRL-1958); H1HeLa (cervical adenocarcinoma), 24 h incubation, MTT; ± SD
Method: The cytotoxicity of biaryl monophosphines was tested in vitro in normal (VERO) and cancer-derived (H1HeLa) cells after 24 h of incubation using a microculture tetrazolium test. Table 2 presents the CC50 (concentrations decreasing the cellular viability by 50%) values calculated from dose–response cytotoxicity curves (Figure 4).
Cytotoxicity was evaluated using a microculture tetrazolium test as previously described, and details can be found in the Supplementary Materials. The cell lines used in the presented study were acquired from the American Type Culture Collection (ATCC); the one used for cytotoxicity testing included non-cancerous VERO (kidney; ATCC CCL-81) cells and cancer-originating H1HeLa (cervical adenocarcinoma; ATCC CRL-1958) cells. VERO cells were cultured in Dulbecco’s Modified Eagle’s Medium (DMEM; Corning, Tewksbury, MA, USA), while Eagle’s Minimum Essential Medium (MEM; Corning) was used for H1HeLa. Antibiotics (penicillin–streptomycin solution, Corning) and fetal bovine serum (FBS, Corning) were added to cell media. Cells were incubated in a 5% CO2 atmosphere at 37 °C (CO2 incubator, Panasonic Healthcare Co., Tokyo, Japan). Briefly, the monolayers of VERO or H1HeLa cells in 96-well plates (Falcon, Corning) were treated with serial dilutions of selected compounds for 24 h. After this, the medium was removed, the plates were washed with phosphate buffered saline (PBS; Corning), a 10% solution of (3-(4,5-dimethylthiazol-2-yl)-2,5-diphenyltetrazolium bromide (MTT; Sigma-Aldrich, St. Louis, MO, USA) (5 mg/mL) in FBS-free cell media was added, and the incubation continued for the next 4 h. Subsequently, the precipitated formazan crystals were dissolved, and after overnight incubation at 37 °C, the Synergy H1 Multi-Mode Microplate Reader (BioTek Instruments, Inc., Winooski, VT, USA) with Gen5 software (ver. 3.09.07; BioTek Instruments, Inc.) was used for absorbance acquisition (540 and 620 nm). Data was exported to GraphPad Prism (ver. 10) to calculate the CC50 values (50% cytotoxic concentration) from dose–response curves.
Aromaticity Tuning in Biaryl Monophosphines and Their Derivatives […]
Cell line maintenance and in vitro experiments
The cytotoxicity of selected biaryl monophosphines was evaluated in vitro towards normal VERO (ATCC, CCL-81) cells and cancer-derived cell line H1HeLa (cervical adenocarcinoma; ATCC (American Type Culture Collection) CRL-1958) using 3-(4,5-dimethylthiazol-2-yl)-2,5-diphenylte-trazolium bromide (MTT) based protocol.
Media used for in vitro culturing included Dulbecco's Modified Eagle's Medium (DMEM, Corning, Tewksbury, MA, USA) used for VERO cells and Modified Eagle Medium (MEM, Corning) used for H1HeLa. Cell media used in the experiments were supplemented with antibiotics (Penicil-lin-Streptomycin Solution, Corning) and fetal bovine serum (FBS, Corning) – 10% (cell passaging) and 2% (cell maintenance and experiments). Phosphate-buffered saline (PBS) and trypsin were bought from Corning, whereas MTT (3-(4,5-dimethylthiazol-2-yl)-2,5-diphenyltetrazolium bromide) from Sigma (Sigma-Aldrich, St. Louis, MO, USA). SDS was purchased from PanReac Applichem (Darmstadt, Germany). Incubation was carried out in a 5% CO2 atmosphere at 37°C (CO2 incubator, Panasonic Healthcare Co., Tokyo, Japan).
Concentrations of cells for passaging were as follows: VERO – 1.5*10^5 cells/mL, H1HeLa – 2*10^5 cells/mL. Routine observations of cell cultures and experiments were carried out using an in-verted microscope (CKX41, Olympus Corporation, Tokyo, Japan) equipped with a ca mera (Moti-cam 3+, Motic, Hong Kong), and the results were recorded (Motic Images Plus 2.0, Motic).
Stock solutions of biaryl monophosphines were prepared by dissolving the samples in cell culture grade DMSO (PanReac Applichem).
Evaluation of cytotoxicity
Cytotoxicity was tested using an MTT-based protocol. The cells were passaged into 96-well plates (Falcon, TC-treated, Corning) and, after overnight incubation, treated with serial dilutions of […]

S. aureus ATCC 29213 = test: Antibacterial screening, broth microdilution (MIC/MBC); assay type: cell-based, Staphylococcus aureus; conditions: Staphylococcus aureus, ATCC29213; for MIC: S. aureus ATCC 29213, MHB, 24 h, 35 °C, read-out: MIC; for MBC: S. aureus ATCC 29213, read-out: MBC
Method: (§1) The antimicrobial activities of a series of compounds 1–5 were tested through the utilization of seven reference species, encompassing both Gram-positive (Staphylococcus aureus ATCC 29213, Staphylococcus epidermidis ATCC 12228, Micrococcus luteus ATCC 10240) and Gram-negative (Escherichia coli ATCC 25922, Klebsiella pneumoniae ATCC 13883, Proteus mirabilis ATCC 12453, Acinetobacter baumannii ATCC 19606) bacteria as model microorganisms. For this purpose, microbial suspensions were prepared in sterile saline (0.85% NaCl) with an optical density of 0.5 McFarland standard, yielding a concentration of 150 × 10^6 CFU/mL (CFU, colony-forming units). All of the stock solutions of the tested compounds were dissolved in DMSO. Amoxicillin (Glentham Life Sciences Ltd., Corsham, UK) was used as a positive control.
(§2) The MIC values of the tested compounds were determined by serial twofold dilutions of 1–5 in Mueller Hinton Broth (MHB, Biomaxima, Lublin, Poland). The range of final 1–5 concentrations used was from 0.49 up to 1000 μg/mL, and for amoxicillin from 0.12 up to 250 μg/mL in the 96-well microtiter plates (Medlab, Raszyn, Poland), starting with 98 μL MHB and 2 μL bacterial inoculum added to each well. Positive controls consisted of 100 μL MHB in each well with the tested compounds at the same concentration range. The negative controls consisted of 100 μL of MHB only. Each set of tests and controls was established with three replicates. The microtiter plates were then subjected to an incubation period of 24 h at a temperature of 35 ± 2 °C. After incubation, the optical density of the microbial growth was measured at a wavelength of 600 nm using a microplate reader, the Biotek Elx800 (BioTek Instruments, Inc., Winooski, VT, USA). The MIC value was defined as the lowest concentration of the tested compound at which there was no visible growth of the tested microorganisms. The determination of the MIC values was achieved by employing the broth microdilution method, in accordance with the recommendations of the European Committee on Antimicrobial Susceptibility Testing (EUCAST). […] Then, the MHA plates were incubated overnight at 35 ± 2 °C. […] The MIC and MBC values were reported in μg/mL, according to the EUCAST reference.

P. mirabilis ATCC 12453 = test: as above; assay type: cell-based, Proteus mirabilis; conditions: Proteus mirabilis, ATCC12453; P. mirabilis ATCC 12453, MHB, 24 h, 35 °C; read-out: MIC
Method: as §1, §2

A. baumannii ATCC 19606 = test: as above; assay type: cell-based, Acinetobacter baumannii; conditions: Acinetobacter baumannii, ATCC19606; A. baumannii ATCC 19606, MHB, 24 h, 35 °C; read-out: MIC
Method: as §1, §2

Row | MIC (S. aureus ATCC 29213) | MIC (P. mirabilis ATCC 12453) | MIC (A. baumannii ATCC 19606) | SMILES | CC50 at 24 h [1] | MBC (S. aureus ATCC 29213)
1 | 15.6 to 31.2 µg/mL (≈ 27.6 to 55.1 µM) | > 1000 µg/mL | 1000 µg/mL (≈ 1760 µM) | COc1cc(OC)c(-c2c(P(=O)(C3CCCCC3)C3CCCCC3)c(OC)c3ccccc3c2OC)c(OC)c1 [Compound 1, Dicyclohexyl[1,4-dimethoxy-3-(2,4,6-trimethoxyphenyl)naphthalen-2-yl]phosphane oxide] | 6.78 ± 0.27 µg/mL | > 1000 µg/mL
2 | 7.82 to 15.6 µg/mL (≈ 15.4 to 30.9 µM) | > 1000 µg/mL | 500 µg/mL (≈ 987 µM) | COc1ccccc1-c1c(P(=O)(C2CCCCC2)C2CCCCC2)c(OC)c2ccccc2c1OC [Compound 2, Dicyclohexyl[1,4-dimethoxy-3-(2-methoxyphenyl)naphthalen-2-yl]phosphane oxide] | 5.92 ± 0.4 µg/mL | > 1000 µg/mL
3 | 62.5 to 125 µg/mL (≈ 113 to 226 µM) | > 1000 µg/mL | > 1000 µg/mL | COc1cc(OC)c(-c2c(P(=O)(C3CCCCC3)C3CCCCC3)c(O)c3ccccc3c2OC)c(OC)c1 [Compound 3, 2-(Dicyclohexylphosphoryl)-4-methoxy-3-(2,4,6-trimethoxyphenyl)naphthalen-1-ol] | 3.83 ± 0.33 µg/mL | > 1000 µg/mL
